The experiment concerns the target T1, THIK-1 T237A (Homo sapiens, UniProt Q9HB14, T237A).
T1 construct: expressed in transfected cells; host or cells: Xenopus oocytes (mRNA injection)
T1 sequence (Q9HB14 1-408 T237A): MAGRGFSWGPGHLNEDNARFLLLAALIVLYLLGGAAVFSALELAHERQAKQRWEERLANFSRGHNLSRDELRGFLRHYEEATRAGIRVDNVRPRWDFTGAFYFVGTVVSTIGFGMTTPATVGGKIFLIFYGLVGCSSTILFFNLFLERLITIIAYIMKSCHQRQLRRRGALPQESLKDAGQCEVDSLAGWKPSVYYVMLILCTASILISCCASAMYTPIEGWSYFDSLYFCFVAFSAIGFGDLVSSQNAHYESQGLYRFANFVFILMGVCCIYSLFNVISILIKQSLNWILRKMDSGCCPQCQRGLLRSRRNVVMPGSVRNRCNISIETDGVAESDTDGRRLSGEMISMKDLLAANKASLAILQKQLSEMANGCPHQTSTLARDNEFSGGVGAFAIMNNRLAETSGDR
Nature of the experiment: Inside-out excised patch recordings, oocytes, THIK-1 T237A mutant. Format: cell-based. The text has this:
Human K2P13.1 THIK-1 (GenBank accession number: NM_022054) and human K2P12.1 THIK-2 (NM_022055.1) were used in this study. For functional expression studies, the respective K^+ channel subtype coding sequences were subcloned into the oocyte expression vector pSGEM or the dual-purpose expression vector pFAW[41] and verified by sequencing. All mutant channels were obtained by site-directed mutagenesis and verified by sequencing. To increase surface expression and macroscopic currents, measurements of THIK-2 channels used a mutated ER retention motif, (R11A R12A R14A R15A R16A; THIK-2*)[20]. Vector DNA was linearized with NheI or MluI, and mRNA was synthesized in vitro using the SP6 or T7 AmpliCap Max High Yield Message Maker Kit (Cellscript, USA) or HiScribe T7 ARCA mRNA Kit (New England Biolabs).
Two-electrode voltage–clamp (TEVC) studies were performed in Xenopus oocytes. All animal use conformed to the Guide for the Care and Use of Laboratory Animals (NIH Publication 85–23), and all experiments using Xenopus toads were approved by the local ethics panels. Oocytes were stored at 17 °C in ND96 recording solution composed of (in mM): 96 NaCl, 2 KCl, 1.8 CaCl2, 1 MgCl2, 5 HEPES (pH 7.5 adjusted with NaOH and HCl), supplemented with Na-pyruvate (275 mg L^–1), theophylline (90 mg L^–1) and gentamicin (50 mg L^–1). Oocytes were injected with 1 ng mRNA for WT or mutant channels, and were incubated for 24–48 h at 17 °C. Two-electrode voltage clamp recordings were then performed as previously described[42],[43]. For macroscopic patch–clamp measurements, oocytes were obtained as described above incubated at 17 °C in a solution containing (mM): 54 NaCl, 30 KCl, 2.4 NaHCO3, 0.82 MgSO4 ×7 H2O, 0.41 CaCl2, 0.33 Ca(NO3)2 ×4 H2O and 7.5 TRIS (pH 7.4 adjusted with NaOH and HCl) for 1–4 days before use. Excised patch recordings in inside-out configuration conditions were performed at room temperature. Patch pipettes were made from thick-walled borosilicate glass GB 200TF-8P (Science Products), had resistances of 0.2–0.5 MΩ (tip diameter, 10–25 µm) and filled with a pipette solution (in mM): 120 KCl, 10 HEPES and 3.6 CaCl2 (pH 7.4 adjusted with KOH and HCl). Intracellular bath solutions and compounds were applied to the cytoplasmic side of excised patches for the various K^+ channels through a gravity flow multi-barrel pipette system. The intracellular solution had the following composition (in mM): 120 KCl, 10 HEPES, 2 EGTA and 1 pyrophosphate (pH adjusted with KOH and HCl). Currents were recorded with an EPC10 amplifier (HEKA Electronics) and sampled at 10 kHz or higher, with filtering set to 3 kHz (–3 dB) or higher, as appropriate for sampling rate. For measurements of GPCR activation, whole-cell currents were recorded for THIK-1 in transiently transfected HEK-293 cells. Cells were stimulated by a ramp protocol between −100 and +60 mV (holding potential, −80 mV). The pipette solution was composed of (in mM): 140 KCl, 2 MgCl2, 1 CaCl2, 2.5 EGTA and 10 HEPES (pH 7.3 adjusted with KOH and HCl). The extracellular bath solution had the following composition (in mM): 135 NaCl, 5 KCl, 2 MgCl2, 2 CaCl2, 10 glucose and 10 HEPES pH (pH 7.3 adjusted with NaOH and HCl). Oxotremorine M (Oxo-M) was added to extracellular bath solution to obtain the final concentration. Single-channel currents were recorded with an Axopatch 200B amplifier through a Digidata 1440A digitizer (Molecular Devices). Data were filtered at 2 kHz and recorded at a 200-kHz sampling rate with the program Clampex (Molecular Devices). Pipette solution and bath solution for cell-attached recordings contained (in mM): 140 KCl, 2 MgCl2, 1 CaCl2 and 10 HEPES (pH 7.4 adjusted with KOH and HCl). For inside-out recordings, the bath solution contained (in mM): 140 KCl, 2 MgCl2, 1 CaCl2 and 10 HEPES (pH 7.2 adjusted with KOH and HCl). All experiments were conducted at room temperature. […]

The structures appear in SMILES notation. “And” between values parts separate entries of the source, which are not always exact repeats. Identical values can stand only once.

A word on the IC50: it is the concentration that inhibits the measured activity by half. Low values mean greater potency, high ones weaker potency. With `CCCCC[N+](CCCCC)(CCCCC)CCCCC` [TPenA, tetrapentylammonium], the IC50 is, setting by setting: (TPenA IC50, T237A mutant) 751 ± 69 µM; (TPenA IC50, THIK-1 T237A, individual recordings) 1130 µM and 808 µM and 597 µM and 535 µM and 580 µM and 782 µM and 1030 µM and 536 µM and 917 µM and 590 µM; (TPenA IC50, THIK-1 T237A, mean) 751 µM.

One may read the inhibition as the drop in the measured response relative to a control, in per cent. For `FC(F)OC(Cl)C(F)(F)F` (stereo not drawn) [Isoflurane, isoflurane], where the note is “4.9 mM Isoflurane, T237A, individual recordings”, the “Inhibition (%)” value was 17.406% and 8.395% and 11.371% and 16.439% and 18.927% and 20.492% and 11.299%. Besides, for the setting “isoflurane 0.242 mM, THIK-1 T237A”, the inhibition at 242 µM was 3.32%. The compound also came in with an inhibition at 485 µM (isoflurane 0.485 mM, THIK-1 T237A) of 6.3%. This compound also had an inhibition at 2420 µM (isoflurane 2.42 mM, THIK-1 T237A) of 10.5%. The inhibition at 4850 µM (isoflurane 4.85 mM, THIK-1 T237A) was 14.9%. The same compound showed an inhibition at 24200 µM (isoflurane 24.2 mM, THIK-1 T237A) of 41.2%.

With `FC(F)(F)C(Cl)Br` (stereo not drawn) [halothane], under “3.0 mM halothane, T237A, individual recordings”, the “Inhibition (%)” value is 33.289% and 24.219% and 32.586% and 20.723% and 17.184% and 21.968% and 14.425% and 17.317% and 20.857% and 12.818% and 13.953% and 26.198% and 19.691% and 2.253% and 19.772% and 18.717% and 25.052% and 20.656% and 33.770% and 18.734% and 25.692% and 28.421% and 33.333%. This compound also gave an inhibition at 152 µM (halothane 0.152 mM, THIK-1 T237A) of 2.14%. The same compound displayed an inhibition at 304 µM (halothane 0.304 mM, THIK-1 T237A) of 5.74%. 1520 µM produced 14% inhibition (halothane 1.52 mM, THIK-1 T237A). Where the note is “halothane 3.04 mM, THIK-1 T237A”, this compound registered an inhibition at 3040 µM of 21.8%. This compound also registered an inhibition at 15200 µM (halothane 15.2 mM, THIK-1 T237A) of 61.5%.

`FCOC(C(F)(F)F)C(F)(F)F` [Sevoflurane, sevoflurane]: the “Inhibition (%)” value (0.24 mM Sevoflurane, T237A, individual recordings) was 3.46% and 13.30% and 10.43% and 14.31% and 9.40% and 9.31%. Where the note is “0.24 mM Sevoflurane, T237A, mean”, this compound displayed an inhibition at 240 µM of 10%. For the same compound, the inhibition at 23 µM (THIK-1 T237A, 0.023 mM sevoflurane) is 2.46%. The compound further had an inhibition at 47 µM (THIK-1 T237A, 0.047 mM sevoflurane) of 5.91%. Moreover, at 468 µM the inhibition (THIK-1 T237A, 0.468 mM sevoflurane) was 21.7%. For the setting “THIK-1 T237A, 2.34 mM sevoflurane”, this compound had an inhibition at 2340 µM of 65.6%.

Values taken from PMC12263422, “Cryo-EM structure of the human THIK-1 K2P K^+ channel reveals a lower Y gate regulated by lipids and anesthetics” (Nature Structural & Molecular Biology, 2025).
